# Assays:
# [1] = tested on: six human cancer cell lines (Hs683, U-373 MG, HCT-15, LoVo, A549, J82); experiment: MTT test, summary over the six cell lines; assay type: cell-based; settings: for cytotoxic / anti-tumor activity on the 6 tested cell lines: result in words, FIGS. 3, 4 and 6
# Method: In order to characterize the in vitro activities of the compounds according to the invention, MTT tests were carried out. The MTT test, which is a well-known test in the art, is an indirect technique that rapidly measures, i.e. within 5 days, the effect of a given product on the overall cell growth. This test measures the number of metabolically active living cells that are able to transform the MTT product (3-(4,5-dimethylthiazol-2-yl)-2,5 diphenyl tetrazolium bromide), having a yellowish color, to the blue product formazan dye by mitochondrial reduction. The amount of formazan obtained at the end of the experiment is measured with a spectrophotometer and is directly proportional to the number of living cells. Determination of the optical density enables a quantitative measurement of the effect of the investigated compounds as compared to the control condition (untreated cells) and to compare it to other reference compound. In the following examples different compounds according to the invention were tested and compared to the reference compound being UBS881.
# Six human cancer cell lines, described in Table D, were tested in the presence of the extract according to the invention. These cell lines represent four histological cancer types, being glioma cancer (cell line Hs683 and U-373 MG), colon cancer (cell lineHCT-15 and LoVo), lung cancer (cell line A549) and bladder cancer (cell line J82). […]
# After 72 hours of incubation at 37° C. with the compound (experimental conditions) or without the compound (control condition), the medium was replaced by 100 μl MTT at the concentration of 1 mg/ml dissolved in RPMI. […] The micro wells were shaken for 5 minutes and read on a spectrophotometer at the wavelengths of 570 nm corresponding to the maximum formazan absorbance wavelength, and of 630 nm, which is the background noise wavelength.
# For each experimental condition, the mean OD associated with the SEM (standard error of the mean) for each condition (6 wells) was calculated. The percentage of remaining living cells in comparison with the control was calculated. […]
# [2] = tested on: Hs578T (breast cancer) cells; experiment: Cell migration, phase-contrast video microscopy; assay type: cell-based; settings: for 24 hours on the 25% of most motile cells, at 10^−7 M
# Method: (§1) Cells of different cancer lines, i.e. U-373 MG (Glioma cancer), Hs578T (breast cancer) and A549 (lung cancer) were seeded on culture flask 48 hours before the migration experiment. On the test day, cells were treated with or without compounds UBS881, UBS1664, UBS3285, UBS3327 and UBS3328 in closed Falcon dishes containing a buffered medium at a controlled temperature (37.0±0.1° C.) for 12 or 24 hours. The compounds were administered at two non-cytotoxic concentrations (10^−6 M and 10^−7 M) for UBS881 and UBS1664, and at 4 concentrations (10^−7 M to 10^−10 M) for UBS3285, UBS3327 and UBS3328. Migration of the cells was observed by means of a CCD-camera mounted on a phase-contrast microscope. A statistical analyse of the migration, with the non-parametric Mann-Whitney test, was established for 25% of the most motile cells and for the entire cell population for UBS881 and UBS1664, and established for 25%-50% of the most motile cells and for the entire cell population for UBS3285, UBS3327 and UBS3328 compounds. The table F below illustrates the anti-migratory effect of the compound according to the invention.
# A549 (lung cancer) cells = experiment: Cell migration, phase-contrast video microscopy; assay type: cell-based, human
# Method: as §1
# [3] = tested on: U-373 MG, Hs578T and/or A549 cancer cells; experiment: Cell migration, summary over the cell lines; assay type: cell-based; settings: at the weak studied concentrations; result in words
# Method: as §1
# [4] = tested on: U-373 MG (Glioma cancer) cells; experiment: Cell migration, phase-contrast video microscopy; assay type: cell-based, human
# Method: as §1
# [5] = for 24 hours on the 25% of most motile cells, at 10^−7 M
smiles,measurement,setting,value
COc1ccc(OC)c(C(C)(O)C2CCC3C4CC=C5CC(O)CCC5(C)C4CCC32C)c1 (centres unmarked) [UBS1740],cytotoxic / anti-tumor activity on the 6 tested cell lines,[1],Hs683 and A549 cell lines were most sensitive
COc1ccc(OC)c(C2CC3C4CC=C5CC(OC6O[C@H](CO)[C@@H](O[C@@H]7O[C@H](CO)[C@@H](O)[C@H](O)[C@H]7O)[C@H](O)[C@H]6O)CCC5(C)C4CCC3(C)C2C(C)=O)c1 (some centres unmarked) [UBS3327],Max. effects (anti-migratory effect),[2],−21%/p < 0.001
same,Max. effects (anti-migratory effect),"A549 (lung cancer) cells; for 24 hours on the 25% of most motile cells, at 10^−8 M",−34%/p < 0.001
same,migration level of cancer cells,[3],induced a decrease in the migration level
COc1ccc(OC)c(C(C)(O)C2CCC3C4CC(=O)C5=CC(=O)CCC5(C)C4CCC32C)c1 (centres unmarked) [UBS1819],IC50,"[1]; Homo sapiens, 72 hours incubation, range over all 6 cell lines",10 to 50 µM
COc1ccc(OC)c(C2CC3C4CC(=O)C5=CC(=O)CCC5(C)C4CCC3(C)C2C(C)=O)c1 (centres unmarked) [UBS1664],cytotoxic / anti-tumor activity on the 6 tested cell lines,[1],induced cytotoxic activity on all 6 tested cell lines
same,Max. effects (anti-migratory effect),"A549 (lung cancer) cells; for 12 hours on the entire cell population, at 10^−7 M",−15%/p < 0.05
same,Max. effects (anti-migratory effect),[4]; [5],−27%/p < 0.001
same,migration level of cancer cells,[3],induced a decrease in the migration level
COc1ccc(OC)c(C2CC3C4CC=C5CC(OC6O[C@H](CO[C@@H]7O[C@H](CO)[C@@H](O)[C@H](O)[C@H]7O)[C@@H](O)[C@H](O)[C@H]6O)CCC5(C)C4CCC3(C)C2C(C)=O)c1 (some centres unmarked) [UBS3328],Max. effects (anti-migratory effect),A549 (lung cancer) cells; [5],−40%/p < 0.001
same,Max. effects (anti-migratory effect),"[4]; for 12 hours on the entire cell population, at 10^−10 M",−27%/p < 0.001
same,migration level of cancer cells,[3],induced a decrease in the migration level
COc1ccc(OC)c(C2CC3C4CC=C5CC(OC6O[C@H](CO)[C@H](O)[C@H](O)[C@H]6O)CCC5(C)C4CCC3(C)C2C(C)=O)c1 (some centres unmarked) [UBS3285],Max. effects (anti-migratory effect),"[4]; for 24 hours on the 50% of most motile cells, at 10^−8 M",−22%/p < 0.001
same,migration level of cancer cells,[3],induced a decrease in the migration level

# From US20060149045A1, “Steroid compounds with anti-tumor activity” (priority 2002, published 2006)
